Earlier results, collected in US20050244462A1, “Devices and methods for treating a mammalian eye” (Allergan, Inc., priority 2004, published 2005).

Conditions: steroidal anti-inflammatory efficacy in vivo; 25 mg hydrocortisone equivalent to 1 mg dexamethasone; Goodman and Gilman 8th ed. p. 1447

SMILES: C[C@]12CCC(=O)C=C1CC[C@@H]1[C@@H]2[C@@H](O)C[C@@]2(C)[C@H]1CC[C@]2(O)C(=O)CO [hydrocortisone]
- potency relative to dexamethasone: approximately twentyfivefold less potent than dexamethasone
